Laboratory results taken from patent US12180189B2, “Proteostasis regulators” (Kineta, Inc., priority 2011, dated 2024).

These molecules were tested against USP14 (Homo sapiens, UniProt P54578) (assay: USP14 inhibition (methodology of B. H. Lee et al. Nature 2010)). Conditions: average value from three experimental determinations.
USP14, sequence (P54578 whole entry): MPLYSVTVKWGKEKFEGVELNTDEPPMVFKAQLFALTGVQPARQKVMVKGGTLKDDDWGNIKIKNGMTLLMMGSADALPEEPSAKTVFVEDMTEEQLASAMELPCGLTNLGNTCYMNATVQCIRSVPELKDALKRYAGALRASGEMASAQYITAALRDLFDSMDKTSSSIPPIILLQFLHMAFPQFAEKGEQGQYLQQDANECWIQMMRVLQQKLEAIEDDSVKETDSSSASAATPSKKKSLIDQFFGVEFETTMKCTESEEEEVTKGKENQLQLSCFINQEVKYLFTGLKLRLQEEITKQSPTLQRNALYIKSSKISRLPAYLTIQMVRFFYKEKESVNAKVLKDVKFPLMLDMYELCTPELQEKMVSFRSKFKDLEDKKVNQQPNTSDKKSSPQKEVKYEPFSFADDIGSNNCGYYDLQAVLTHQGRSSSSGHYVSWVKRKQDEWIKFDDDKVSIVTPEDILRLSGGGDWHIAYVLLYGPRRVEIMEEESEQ
USP14, sequence (Q13200 whole entry partner): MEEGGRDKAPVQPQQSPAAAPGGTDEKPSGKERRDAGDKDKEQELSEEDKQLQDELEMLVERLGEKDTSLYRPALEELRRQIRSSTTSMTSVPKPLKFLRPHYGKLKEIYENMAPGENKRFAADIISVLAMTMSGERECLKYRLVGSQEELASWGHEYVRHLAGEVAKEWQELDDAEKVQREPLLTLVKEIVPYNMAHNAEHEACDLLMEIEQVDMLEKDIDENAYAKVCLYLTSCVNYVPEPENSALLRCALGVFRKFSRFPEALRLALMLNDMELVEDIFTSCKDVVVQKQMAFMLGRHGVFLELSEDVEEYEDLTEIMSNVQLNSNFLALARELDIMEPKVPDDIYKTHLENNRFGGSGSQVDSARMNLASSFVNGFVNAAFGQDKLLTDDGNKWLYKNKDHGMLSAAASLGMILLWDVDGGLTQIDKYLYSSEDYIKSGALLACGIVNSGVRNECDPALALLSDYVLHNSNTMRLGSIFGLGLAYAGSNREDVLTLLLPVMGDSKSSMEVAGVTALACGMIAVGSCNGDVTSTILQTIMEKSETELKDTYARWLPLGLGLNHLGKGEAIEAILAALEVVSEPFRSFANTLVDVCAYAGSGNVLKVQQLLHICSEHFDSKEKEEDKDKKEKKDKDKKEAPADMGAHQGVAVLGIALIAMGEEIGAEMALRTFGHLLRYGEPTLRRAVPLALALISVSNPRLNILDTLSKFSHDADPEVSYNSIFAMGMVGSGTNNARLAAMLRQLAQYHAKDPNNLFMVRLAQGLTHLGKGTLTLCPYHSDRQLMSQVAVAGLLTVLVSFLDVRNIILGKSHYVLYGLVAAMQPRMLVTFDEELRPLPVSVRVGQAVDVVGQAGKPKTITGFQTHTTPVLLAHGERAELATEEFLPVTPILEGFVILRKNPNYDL
USP14, sequence (P35998 whole entry partner): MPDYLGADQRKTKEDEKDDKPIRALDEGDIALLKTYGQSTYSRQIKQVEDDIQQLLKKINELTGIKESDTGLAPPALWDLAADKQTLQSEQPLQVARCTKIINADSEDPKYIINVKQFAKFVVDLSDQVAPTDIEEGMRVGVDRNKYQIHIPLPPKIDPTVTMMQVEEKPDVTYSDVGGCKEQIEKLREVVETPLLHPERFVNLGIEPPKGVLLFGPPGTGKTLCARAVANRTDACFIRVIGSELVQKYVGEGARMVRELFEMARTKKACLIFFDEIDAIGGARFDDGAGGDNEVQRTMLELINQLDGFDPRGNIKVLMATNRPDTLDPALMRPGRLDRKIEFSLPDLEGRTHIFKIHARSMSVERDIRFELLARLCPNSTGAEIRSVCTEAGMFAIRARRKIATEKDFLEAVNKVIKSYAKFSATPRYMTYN
Type: biochemical
Description: Known USP14 inhibitor IU1 (1-(1-(4-fluorophenyl)-2,5-dimethyl-1H-pyrrol-3-yl)-2-(pyrrolidin-1-yl)ethanone; B. H. Lee et al. Nature 2010, 467 (9), 179) was used as a comparative reference agent. The IC50 values in the Table below represent the average value from three experimental determinations. In the table below, “A” represents an IC50 of 0 to 5 uM, “B” represents an IC50 of 5 to 10 uM, and “C” represents and IC50 of greater than 10 uM.
In the case of `Cc1cc(C(=O)CC2CCCC2)c(C)n1-c1ccc(Cl)cc1` [Compound A1, 1-[1-(4-Chloro-phenyl)-2,5-dimethyl-1H-pyrrol-3-yl]-2-cyclopentyl-ethanone], the IC50 is reported as over 10 µM. For `Cc1cc(C(=O)CC2CCCCC2)c(C)n1-c1ccc(Cl)cc1` [Compound A2, 1-[1-(4-Chloro-phenyl)-2,5-dimethyl-1H-pyrrol-3-yl]-2cyclohexyl-ethanone], the IC50 was over 10 µM. Molecule `Cc1cc(C(=O)C(F)F)c(C)n1-c1ccc(Cl)cc1` [Compound A3, 1-(1-(4-chlorophenyl)-2,5-dimethyl-1H-pyrrol-3-yl)-2,2-difluoroethanone] has an IC50 of over 10 µM. With `Cc1cc(C(=O)CC(F)(F)F)c(C)n1-c1ccc(Cl)cc1` [Compound A4, 1-(1-(4-chlorophenyl)-2,5-dimethyl-1H-pyrrol-3-yl)-3,3,3-trifluoropropan-1-one] the IC50 was over 10 µM. Work on `Cc1cc(C(=O)C(=O)O)c(C)n1-c1ccc(Cl)cc1` [Compound A5, 2-(1-(4-chlorophenyl)-2,5-dimethyl-1H-pyrrol-3-yl)-2-oxoacetic acid] yielded an IC50 of over 10 µM. `Cc1cc(C(=O)C(=O)N2CCC(F)CC2)c(C)n1-c1ccc(Cl)cc1` [Compound A7, 1-(1-(4-chlorophenyl)-2,5-dimethyl-1H-pyrrol-3-yl)-2-(4-fluoropiperidin-1-yl)ethane-1,2-dione] gave an IC50 of over 10 µM. `Cc1cc(C(=O)CCl)c(C)n1-c1ccc(Cl)cc1` [Compound A8, 2-chloro-1-(1-(4-chlorophenyl)-2,5-dimethyl-1H-pyrrol-3-yl)ethanone] was tested, and the IC50 was over 10 µM. `Cc1cc(C(=O)Cn2cccc2)c(C)n1-c1ccc(Cl)cc1` [Compound A9, 1-[1-(4-Chloro-phenyl)-2,5-dimethyl-1H-pyrrol-3-yl]-2-pyrrol-1-yl-ethanone] showed an IC50 of over 10 µM. `Cc1cc(C(=O)Cn2ccnc2)c(C)n1-c1ccc(Cl)cc1` [Compound A10, 1-[1-(4-Chloro-phenyl)-2,5-dimethyl-1H-pyrrol-3-yl]-2-imidazol-1-yl-ethanone] was tested, and the IC50 was over 10 µM. In the case of `Cc1cc(C(=O)CN2CCCCC2)c(C)n1C` [Compound A11, 2-(piperidin-1-yl)-1-(1,2,5-trimethyl-1H-pyrrol-3-yl)ethanone], the IC50 is reported as over 10 µM. `Cc1cc(C(=O)CN2CCCC2)c(C)n1C` [Compound A12, 2-(pyrrolidin-1-yl)-1-(1,2,5-trimethyl-1H-pyrrol-3-yl)ethanone] was tested, and the IC50 was over 10 µM. Molecule `Cc1c(C(=O)CN2CCCC2)cnn1-c1ccc(Cl)cc1` [Compound A14, 1-[1-(4-Chloro-phenyl)-5-methyl-1H-pyrazol-4-yl]-2-pyrrolidin-1-yl-ethanone] has an IC50 of under 5 µM. `Cc1nn(-c2ccc(Cl)cc2)c(C)c1C(=O)CN1CCCCC1` [Compound A18, 1-[1-(4-Chloro-phenyl)-3,5-dimethyl-1H-pyrazol-4-yl]-2-piperidin-1-yl-ethanone] showed an IC50 of 5 to 10 µM. For `Cc1nn(-c2ccc(Cl)cc2)c(C)c1C(=O)CN1CCCC1` [Compound A19, 1-[1-(4-Chloro-phenyl)-3,5-dimethyl-1H-pyrazol-4-yl]-2-Pyrrolidine-1-yl-ethanone], the IC50 was under 5 µM. In the case of `Cc1nn(-c2ccc(Cl)cc2)c(C)c1C(=O)CN(C)C1CC1` [Compound A20, 1-[1-(4-Chloro-phenyl)-3,5-dimethyl-1H-pyrazol-4-yl]-2-(Cyclopropyl-methyl-amino)-ethanone], the IC50 is reported as over 10 µM. For `Cc1nn(-c2ccc(Cl)cc2)c(C)c1C(=O)CC1CCCCC1` [Compound A21, 1-(1-(4-chlorophenyl)-3,5-dimethyl-1H-pyrazol-4-yl)-2-cyclohexylethanone], the IC50 was over 10 µM. Molecule `O=C(CN1CCCCC1)c1cnn(-c2ccc(Cl)cc2)c1` [Compound A22, 1-[1-(4-Chloro-phenyl)-1H-pyrazol-4-yl]-2-piperidin-1-yl-ethanone] has an IC50 of over 10 µM. For `O=C(CN1CCCC1)c1cnn(-c2ccc(Cl)cc2)c1` [Compound A23, 1-[1-(4-Chloro-phenyl)-1H-pyrazol-4-yl]-2-pyrrolidin-1-yl-ethanone], the IC50 was over 10 µM. `CN(CC(=O)c1cnn(-c2ccc(Cl)cc2)c1)C1CC1` [Compound A24, 1-[1-(4-Chloro-phenyl)-1H-pyrazol-4-yl]-2-(cyclopropyl-methyl-amino)-ethanone] was tested, and the IC50 was over 10 µM. For `Cc1oc(-c2ccc(Cl)cc2)nc1C(=O)CN1CCCCC1` [Compound A25, 1-[2-(4-Chloro-phenyl)-5-methyl-oxazol-4-yl]-2-piperidin-1-yl-ethanone], the IC50 was over 10 µM. `O=C(CN1CCCCC1)c1cc(-c2ccc(Cl)cc2)ns1` [Compound A26] gave an IC50 of over 10 µM. With `Cc1sc(-c2ccc(Cl)cc2)cc1C(=O)CN1CCCCC1` [Compound A27, 1-(5-(4-chlorophenyl)-2-methylthiophen-3-yl)-2-(piperidin-1-yl)ethanone] the IC50 was over 10 µM. `Cc1sc(-c2ccc(Cl)cc2)cc1C(=O)CN1CCC(F)CC1` [Compound A28, 1-(5-(4-chlorophenyl)-2-methylthiophen-3-yl)-2-(4-fluoropiperidin-1-yl)ethanone] gave an IC50 of over 10 µM. `Cc1sc(-c2ccc(Cl)cc2)cc1C(=O)CN1CCC(O)CC1` [Compound A29, 1-(5-(4-chlorophenyl)-2-methylthiophen-3-yl)-2-(4-hydroxypiperidin-1-yl)ethanone] gave an IC50 of over 10 µM. In the case of `Cc1c(C(=O)CN2CCCC2)nnn1-c1ccc(F)cc1` [Compound A30, 1-(1-(4-fluorophenyl)-5-methyl-1H-1,2,3-triazol-4-yl)-2-(pyrrolidin-1-yl)ethanone], the IC50 is reported as over 10 µM. For `O=C(CN1CCCC1)N1CCN(c2ccc(Cl)cc2)CC1` [Compound A31, 1-(4-(4-chlorophenyl)piperazin-1-yl)-2-(pyrrolidin-1-yl)ethanone], the IC50 was over 10 µM. For `O=C(CN1CCCCC1)N1CCN(c2ccc(F)cc2)CC1` [Compound A32, 1-(4-(4-fluorophenyl)piperazin-1-yl)-2-(piperidin-1-yl)ethanone], the IC50 was over 10 µM. Molecule `Cc1cc(C(=O)C(C)N2CCC(C(N)=O)CC2)c(C)n1-c1ccc(Cl)cc1` (stereo not shown) [Compound A44] has an IC50 of over 10 µM. For `CNC(=O)C1CCN(C(C)C(=O)c2cc(C)n(-c3ccc(Cl)cc3)c2C)CC1` (stereo not shown) [Compound A45], the IC50 was over 10 µM. Work on `COC(=O)C1CCN(C(C)C(=O)c2cc(C)n(-c3ccc(Cl)cc3)c2C)CC1` (stereo not shown) [Compound A46] yielded an IC50 of over 10 µM. In the case of `Cc1cc(C#N)c(C)n1-c1ccc(Cl)cc1` [Compound A47], the IC50 is reported as over 10 µM.
